What was measured:
[1] = system: température corporelle, augmentée par l'injection intraveineuse de nucléinate de sodium dans le lapin; assay: Antipyretic activity: rise in body temperature induced by intravenous sodium nucleinate; type: in vivo; conditions: for Augmentation temperature corporelle - °C ± d.s. après 1 heure: 1 heure après l'administration; for Augmentation temperature corporelle - °C ± d.s. après 2 heures: 2 heures après l'administration; for Augmentation temperature corporelle - °C ± d.s. après 3 heures: 3 heures après l'administration; for Augmentation temperature corporelle - °C ± d.s. après 4 heures: 4 heures après l'administration
Text: L'activité antipyrétique de l'acétylsalicylate de 2(o-méthoxy-phénoxy)éthanol a été evaluée en comparaison avec celle de l'acide acétylsalicylique suivant la méthode, universellement employée, de la mesure de la variation de la température corporelle, augmentée par 1' injection intraveineuse de nucléinate de sodium dans le lapin. Les résultats de l'élaboration statistique des épreuves sont indiqués dans le suivant Tableau 2, dans lequel l'augmentation de la température corporelle est indiquée en °C ± la déviation standard, et a été mesurée 1, 2, 3 et 4 heures après l'administration; pour les autres valeurs est valable ce qui a été spécifié en relation avec le Tableau 1.

[2] = system: convulsions abdominales (writhings) induites dans le souris par une injection intrapéritonéale d'acide acétique; assay: Acetic acid writhing test (analgesic activity, Koster and Anderson); type: in vivo; conditions: souris, 60 minutes après l'administration; for Frequence writhings: ± déviation standard
Text: L'activité analgésique de l'acétylsalicylate de 2(o-méthoxy-phénoxy)éthanol a été évaluée en comparaison avec celle de l'acide acétylsalicylique sur la base de la fréquence des convulsions abdominales (writhings) induites dans le souris par une injection intrapéritonéale d'acide acétique, suivant la technique décrite par Koster et Anderson (Fed. Proc., volume 18, page 412, 1959). Les résultats de l'élaboration statistique des épreuves sont indiqués dans le suivant Tableau 3, dans lequel la fréquence des convulsions est indiquée comme nombre de convulsions par minute ± la déviation standard, et a été mesurée 60 minutes après l'administration; pour les autres valeurs est valable ce qui a été spécifié en relation avec le Tableau 1.

[3] = system: arbre bronchial de rats Wistar; assay: Bronchosecretolytic activity: pulmonary excretion of fluorescein (Mawatari); type: in vivo; conditions: rats Wistar, 200 mg/Kg
Text: L'activité bronchosécrétolytique de l'acétylsalicylate de 2(o-méthoxy-phénoxy)éthanol a été évaluée en comparaison avec celle du gaïacoléthanol, sur la base de la mesure des variations de la quantité d'indicateur (fluorescéine) trouvée dans l'arbre bronchial de rats Wistar, recueillie au moyen d'un système de lavage standardisé, après injection parentérale de l'indicateur, et mesurée au moyen d'un spectrofluorométre, suivant la méthode décrite par H.Mawatari ("Expérimental studies on the expectorant action of several drugs", Kagoshima Daigakeu Igakeu Zasshi, volume 27, page 561, 1976). Les résultats de l'élaboration statistique des épreuves sont recueillis dans le suivant tableau 4,dans lequel l' excrétion pulmonaire de fluorescéine est exprimée en microgrammes ± la déviation standard, soit dans la quantité totale trouvée, soit dans la quantité pour-cent rapportée à 100 g de poids corporel des rats. Entre parenthèses sont indiquées les valeurs de l'augmentation pour-cent par rapport aux contrôles. Pour les autres valeurs est valable ce qui été précisé en relation au Tableau 1.

[4] = Acute oral toxicity (DL50, Lichtfield et al); design: species or system rats; conditions: rat, in vivo
Text: La toxicité aiguë de l'acétylsalicylate de 2(o-méthoxy--phénoxy)éthanol a été évaluée en comparaison avec celle de l'acide acétylsalicylique et exprimée comme dose DL50 (la dose qui provoque la mort du 50% des animaux traités) en mg/kg de poids corporel des rats auxquels la substance a été administrée par voie orale. Les résultats de l'élaboration statistique suivant la méthode décrite par J.T.Lichtfield et al (J. Pharm. Exp. Ther., volume 96, page 99, 1949) donnent les suivantes valeurs de la dose toxique DLSO et, entre parenthèses, de son intervalle fiducial (valeurs minimale et maximale relevées): • acide acétylsalicylique 1400 (1207 1580) • acétylsalicylate de • 2(o-méthoxy-phénoxy)éthanol 2934 (2696 3098)

[5] = system: rats; conditions: rat, in vivo, 915 mg/kg
Text: La toxicité subaiguë de l'acétylsalicylate de 2(o-méthoxy-phénoxy)éthanol a été évaluée en comparaison avec celle de l'acide acétylsalicylique en administrant à des rats, par voie orale, des doses journalières de substance pour 10 jours, et en relevant le nombre des animaux morts, la diminution moyenne de poids des animaux traités et l'incidence des lésions gastriques relevées, distinguées en simple hyperémie, hyperémie accompagnée par hémorragie et hémorragie accompagnée par ulcérations. Les résultats des épreuves sont indiqués dans le Tableau 5, dans lequel la dose de substance administrée est exprimée en mg de substance par kg de poids corporel et par jour, et la diminution moyenne de poids corporel à la fin du traitement est exprimée en grammes.

[6] = Solubility (characteristics of the substance); type: physicochemical

In the case of `COc1ccccc1OCCOC(=O)c1ccccc1OC(C)=O` [acétylsalicylate de 2(o-méthoxy-phénoxy)éthanol], the “Augmentation temperature corporelle - °C ± d.s. après 1 heure” value ([1]; 100 mg/Kg) is reported as 1,15 ± 0,19 °C, the “inhibition en pour-cent calculée par rapport aux contrôles, après 2 heures” value ([1]; 100 mg/Kg) is reported as 22 pour-cent and the “Augmentation temperature corporelle - °C ± d.s. après 2 heures” value ([1]; 100 mg/Kg) is reported as 1,13 ± 0,2 °C. For the same molecule, the “inhibition en pour-cent calculée par rapport aux contrôles, après 3 heures” value ([1]; 100 mg/Kg) was 43 pour-cent, the “Augmentation temperature corporelle - °C ± d.s. après 3 heures” value ([1]; 100 mg/Kg) was 0,94 ± 0,11 °C and the “inhibition en pour-cent calculée par rapport aux contrôles, après 4 heures” value ([1]; 100 mg/Kg) was 56 pour-cent. For the same molecule, the “Augmentation temperature corporelle - °C ± d.s. après 4 heures” value ([1]; 100 mg/Kg) was 0,33 ± 0,07 °C, the “Augmentation temperature corporelle - °C ± d.s. après 1 heure” value ([1]; 200 mg/Kg) was 1,1 ± 0,2 °C and the “inhibition en pour-cent calculée par rapport aux contrôles, après 2 heures” value ([1]; 200 mg/Kg) was 24 pour-cent. For the same molecule, the “Augmentation temperature corporelle - °C ± d.s. après 2 heures” value ([1]; 200 mg/Kg) was 1,1 ± 0,17 °C, the “inhibition en pour-cent calculée par rapport aux contrôles, après 3 heures” value ([1]; 200 mg/Kg) was 47 pour-cent and the “Augmentation temperature corporelle - °C ± d.s. après 3 heures” value ([1]; 200 mg/Kg) was 0,87 ± 0,15 °C. The “inhibition en pour-cent calculée par rapport aux contrôles, après 4 heures” value ([1]; 200 mg/Kg) was 62 pour-cent, the “Augmentation temperature corporelle - °C ± d.s. après 4 heures” value ([1]; 200 mg/Kg) was 0,28 ± 0,05 °C and the inhibition at 100 mg/kg ([2]; 1 h, 100 mg/Kg, read-out: % inhibition) was 33%. The inhibition at 200 mg/kg ([2]; 1 h, 200 mg/Kg, read-out: % inhibition) was 49%, the Frequence writhings ([2]; 100 mg/Kg) was “**19,5 ± 5,4 convulsions par minute” and the Frequence writhings ([2]; 200 mg/Kg) was “**14,88 ± 6,8 convulsions par minute”. For the same molecule, the “augmentation pour-cent par rapport aux contrôles (excrétion pulmonaire de fluorescéine, quantité totale)” value [3] was “+90,8 pour-cent”, the “Excrétion pulmonaire de fluorescéine Quantité pour-cent µg/100 g” value ([3]; rapportée à 100 g de poids corporel, ± déviation standard) was 0,230 ± 0,042 µg/100 g and the “Excrétion pulmonaire de fluorescéine Quantité totale µg” value ([3]; ± déviation standard) was 0,481 ± 0,068 µg. For the same molecule, the LD50 [4] was 2930 mg/kg, the “Lésions gastriques Hyperémie” value [5] was 4 and the “Lésions gastriques Hyperémie + hémorragie” value [5] was 2. The “Lésions gastriques Hémorragie + ulcérations” value [5] was “=”, the Nombre animaux morts [5] was 3 and the Δ poids moyenne [5] was -10 grammes. For the same molecule, the “solubilité en solvants organiques” value ([6]; benzène, chloroforme, diméthylcétone, éthanol, éther éthylique, isopropanol et autres solvants organiques) was “soluble” and the “solubilité dans l'eau” value ([6]; eau) was “practiquement insoluble”.

From patent EP0070049A1, “Derivative of acetylsalicylic acid having an analgetic, antipyretic, antiphlogistic and bronchosecretolytic activity” (UNIONE CHIMICA MEDICAMENTI- DIFME-S.p.A., priority 1981, dated 1983)
